Reference: ChEMBL document CHEMBL3608278 (J Med Chem, 2015)
pIC50: −log10 of the molar value.

Experiments:
[1] = target: T1, Potassium voltage-gated channel subfamily A member 3 (Homo sapiens, UniProt P22001); format: cell-based, CHO-K1
[2] = target: T1, Potassium voltage-gated channel subfamily A member 3; assay: cell-based; set-up: species or system Blood
[3] = target: T1, Potassium voltage-gated channel subfamily A member 3; set-up: species or system Blood

T1 sequence (P22001 whole entry): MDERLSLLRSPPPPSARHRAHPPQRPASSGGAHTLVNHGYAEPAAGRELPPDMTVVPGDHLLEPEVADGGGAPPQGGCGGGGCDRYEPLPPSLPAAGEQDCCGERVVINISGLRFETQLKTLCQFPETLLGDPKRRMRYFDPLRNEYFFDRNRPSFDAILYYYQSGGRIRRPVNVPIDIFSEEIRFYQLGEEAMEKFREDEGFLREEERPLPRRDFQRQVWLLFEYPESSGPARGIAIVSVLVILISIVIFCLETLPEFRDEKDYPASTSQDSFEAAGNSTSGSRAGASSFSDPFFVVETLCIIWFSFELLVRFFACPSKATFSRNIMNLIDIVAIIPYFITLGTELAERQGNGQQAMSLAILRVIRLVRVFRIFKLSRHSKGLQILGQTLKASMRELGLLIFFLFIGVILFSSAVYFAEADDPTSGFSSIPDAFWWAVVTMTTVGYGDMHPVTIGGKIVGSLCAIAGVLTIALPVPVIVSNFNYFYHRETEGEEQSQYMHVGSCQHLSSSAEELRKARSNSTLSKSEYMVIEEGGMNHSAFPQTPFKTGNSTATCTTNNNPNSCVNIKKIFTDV

SMILES | pIC50 [1] | pIC50 [2] | pIC50 [3]
CC[C@H](C)[C@@H]1NC(=O)[C@@H](NC(=O)[C@H](CO)NC(=O)[C@@H](N)CCCNC(=N)N)CSSC[C@@H](C(=O)O)NC(=O)[C@H]([C@@H](C)O)NC(=O)CNC(=O)[C@@H]2CSSC[C@@H]3NC(=O)[C@H](CCC(N)=O)NC(=O)[C@H](Cc4ccccc4)NC(=O)[C@H](C)NC(=O)[C@H]([C@@H](C)O)NC(=O)[C@H](CSSC[C@H](NC(=O)[C@H](Cc4ccccc4)NC(=O)[C@H](CO)NC(=O)[C@H](CC(C)C)NC(=O)[C@H](CCCNC(=N)N)NC(=O)[C@H](CCCNC(=N)N)NC(=O)[C@H](CCCCN)NC(=O)[C@H](CCSC)NC(=O)[C@H](CO)NC(=O)[C@H](Cc4cnc[nH]4)NC(=O)[C@H](CCCCN)NC3=O)C(=O)N[C@@H](CCCNC(=N)N)C(=O)N[C@@H](CCCCN)C(=O)N[C@@H]([C@@H](C)O)C(=O)N2)NC(=O)[C@H](CCCNC(=N)N)NC(=O)[C@H](CO)NC(=O)[C@H](CCCCN)NC(=O)[C@@H]2CCCN2C(=O)[C@H]([C@@H](C)CC)NC(=O)[C@H]([C@@H](C)O)NC(=O)[C@H](CC(=O)O)NC1=O | < 8.48 | < 7.00 | < 7.00
CC[C@H](C)[C@@H]1NC(=O)[C@@H](NC(=O)[C@H](CCCCN)NC(=O)[C@@H](N)CCCNC(=N)N)CSSC[C@@H](C(=O)O)NC(=O)[C@H]([C@@H](C)O)NC(=O)CNC(=O)[C@@H]2CSSC[C@@H]3NC(=O)[C@H](CCC(N)=O)NC(=O)[C@H](Cc4ccccc4)NC(=O)[C@H](C)NC(=O)[C@H]([C@@H](C)O)NC(=O)[C@H](CSSC[C@H](NC(=O)[C@H](Cc4ccccc4)NC(=O)[C@H](CO)NC(=O)[C@H](CC(C)C)NC(=O)[C@H](CCCNC(=N)N)NC(=O)[C@H](Cc4ccc(O)cc4)NC(=O)[C@H](CCCCN)NC(=O)[C@H](CCSC)NC(=O)[C@H](CO)NC(=O)[C@H](Cc4cnc[nH]4)NC(=O)[C@H](CCCCN)NC3=O)C(=O)N[C@@H](CCCNC(=N)N)C(=O)N[C@@H](CCCCN)C(=O)N[C@@H]([C@@H](C)O)C(=O)N2)NC(=O)[C@H](CCCNC(=N)N)NC(=O)[C@H](CO)NC(=O)[C@H](CCCCN)NC(=O)[C@@H]2CCCN2C(=O)[C@H]([C@@H](C)CC)NC(=O)[C@H]([C@@H](C)O)NC(=O)[C@H](CC(=O)O)NC1=O | 9.84 | 10.00 | 10.03
CC[C@H](C)[C@@H]1NC(=O)[C@@H](NC(=O)[C@H](CO)NC(=O)[C@@H](N)CCCNC(=N)N)CSSC[C@@H](C(=O)O)NC(=O)[C@H]([C@@H](C)O)NC(=O)CNC(=O)[C@@H]2CSSC[C@@H]3NC(=O)[C@H](CCC(N)=O)NC(=O)[C@H](Cc4ccccc4)NC(=O)[C@H](C)NC(=O)[C@H]([C@@H](C)O)NC(=O)[C@H](CSSC[C@H](NC(=O)[C@H](CCCNC(=N)N)NC(=O)[C@H](CO)NC(=O)[C@H](CC(C)C)NC(=O)[C@H](CCCNC(=N)N)NC(=O)[C@H](Cc4ccc(O)cc4)NC(=O)[C@H](CCCCN)NC(=O)[C@H](CCSC)NC(=O)[C@H](CO)NC(=O)[C@H](Cc4cnc[nH]4)NC(=O)[C@H](CCCCN)NC3=O)C(=O)N[C@@H](CCCNC(=N)N)C(=O)N[C@@H](CCCCN)C(=O)N[C@@H]([C@@H](C)O)C(=O)N2)NC(=O)[C@H](CCCNC(=N)N)NC(=O)[C@H](CO)NC(=O)[C@H](CCCCN)NC(=O)[C@@H]2CCCN2C(=O)[C@H]([C@@H](C)CC)NC(=O)[C@H]([C@@H](C)O)NC(=O)[C@H](CC(=O)O)NC1=O | < 8.48 | 7.89 | 7.22
CC[C@H](C)[C@@H]1NC(=O)[C@@H](NC(=O)[C@H](CO)NC(=O)[C@@H](N)CCCNC(=N)N)CSSC[C@@H](C(=O)O)NC(=O)[C@H]([C@@H](C)O)NC(=O)CNC(=O)[C@@H]2CSSC[C@@H]3NC(=O)[C@H](CCC(N)=O)NC(=O)[C@H](Cc4ccccc4)NC(=O)[C@H](C)NC(=O)[C@H]([C@@H](C)O)NC(=O)[C@H](CSSC[C@H](NC(=O)[C@H](Cc4ccccc4)NC(=O)[C@H](CO)NC(=O)[C@H](CC(C)C)NC(=O)[C@H](CCCNC(=N)N)NC(=O)[C@H](Cc4ccc(O)cc4)NC(=O)[C@H](CCCCN)NC(=O)[C@H](CCSC)NC(=O)[C@H](CO)NC(=O)[C@H](Cc4c[nH]cn4)NC(=O)[C@H](CCCCN)NC3=O)C(=O)N[C@@H](CCCNC(=N)N)C(=O)N[C@@H](CCCCN)C(=O)N[C@@H](CCCNC(=N)N)C(=O)N2)NC(=O)[C@H](CCCNC(=N)N)NC(=O)[C@H](CO)NC(=O)[C@H](CCCCN)NC(=O)[C@@H]2CCCN2C(=O)[C@H]([C@@H](C)CC)NC(=O)[C@H]([C@@H](C)O)NC(=O)[C@H](CC(=O)O)NC1=O | < 8.48 | 7.95 | 7.41
CC[C@H](C)[C@@H]1NC(=O)[C@@H](NC(=O)[C@H](CO)NC(=O)[C@@H](N)CCCNC(=N)N)CSSC[C@@H](C(=O)O)NC(=O)[C@H]([C@@H](C)O)NC(=O)[C@H](CCCNC(=N)N)NC(=O)[C@@H]2CSSC[C@@H]3NC(=O)[C@H](CCC(N)=O)NC(=O)[C@H](Cc4ccccc4)NC(=O)[C@H](C)NC(=O)[C@H]([C@@H](C)O)NC(=O)[C@H](CSSC[C@H](NC(=O)[C@H](Cc4ccccc4)NC(=O)[C@H](CO)NC(=O)[C@H](CC(C)C)NC(=O)[C@H](CCCNC(=N)N)NC(=O)[C@H](Cc4ccc(O)cc4)NC(=O)[C@H](CCCCN)NC(=O)[C@H](CCSC)NC(=O)[C@H](CO)NC(=O)[C@H](Cc4cnc[nH]4)NC(=O)[C@H](CCCCN)NC3=O)C(=O)N[C@@H](CCCNC(=N)N)C(=O)N[C@@H](CCCCN)C(=O)N[C@@H]([C@@H](C)O)C(=O)N2)NC(=O)[C@H](CCCNC(=N)N)NC(=O)[C@H](CO)NC(=O)[C@H](CCCCN)NC(=O)[C@@H]2CCCN2C(=O)[C@H]([C@@H](C)CC)NC(=O)[C@H]([C@@H](C)O)NC(=O)[C@H](CC(=O)O)NC1=O | 9.66 | 10.05 | 9.65
CC[C@H](C)[C@@H]1NC(=O)[C@@H](NC(=O)[C@H](CO)NC(=O)[C@@H](N)CCCNC(=N)N)CSSC[C@@H](C(=O)O)NC(=O)[C@H](CCCNC(=N)N)NC(=O)CNC(=O)[C@@H]2CSSC[C@@H]3NC(=O)[C@H](CCC(N)=O)NC(=O)[C@H](Cc4ccccc4)NC(=O)[C@H](C)NC(=O)[C@H]([C@@H](C)O)NC(=O)[C@H](CSSC[C@H](NC(=O)[C@H](Cc4ccccc4)NC(=O)[C@H](CO)NC(=O)[C@H](CC(C)C)NC(=O)[C@H](CCCNC(=N)N)NC(=O)[C@H](Cc4ccc(O)cc4)NC(=O)[C@H](CCCCN)NC(=O)[C@H](CCSC)NC(=O)[C@H](CO)NC(=O)[C@H](Cc4cnc[nH]4)NC(=O)[C@H](CCCCN)NC3=O)C(=O)N[C@@H](CCCNC(=N)N)C(=O)N[C@@H](CCCCN)C(=O)N[C@@H]([C@@H](C)O)C(=O)N2)NC(=O)[C@H](CCCNC(=N)N)NC(=O)[C@H](CO)NC(=O)[C@H](CCCCN)NC(=O)[C@@H]2CCCN2C(=O)[C@H]([C@@H](C)CC)NC(=O)[C@H]([C@@H](C)O)NC(=O)[C@H](CC(=O)O)NC1=O | 9.72 | 9.45 | 9.32
CC[C@H](C)[C@@H]1NC(=O)[C@@H](NC(=O)[C@H](CO)NC(=O)[C@@H](N)CCCCN)CSSC[C@@H](C(=O)O)NC(=O)[C@H]([C@@H](C)O)NC(=O)CNC(=O)[C@@H]2CSSC[C@@H]3NC(=O)[C@H](CCC(N)=O)NC(=O)[C@H](Cc4ccccc4)NC(=O)[C@H](C)NC(=O)[C@H]([C@@H](C)O)NC(=O)[C@H](CSSC[C@H](NC(=O)[C@H](Cc4ccccc4)NC(=O)[C@H](CO)NC(=O)[C@H](CC(C)C)NC(=O)[C@H](CCCNC(=N)N)NC(=O)[C@H](Cc4ccc(O)cc4)NC(=O)[C@H](CCCCN)NC(=O)[C@H](CCSC)NC(=O)[C@H](CO)NC(=O)[C@H](Cc4cnc[nH]4)NC(=O)[C@H](CCCCN)NC3=O)C(=O)N[C@@H](CCCNC(=N)N)C(=O)N[C@@H](CCCCN)C(=O)N[C@@H]([C@@H](C)O)C(=O)N2)NC(=O)[C@H](CCCNC(=N)N)NC(=O)[C@H](CO)NC(=O)[C@H](CCCCN)NC(=O)[C@@H]2CCCN2C(=O)[C@H]([C@@H](C)CC)NC(=O)[C@H]([C@@H](C)O)NC(=O)[C@H](CC(=O)O)NC1=O | 9.81 | 10.44 | 10.14
CC[C@H](C)[C@@H]1NC(=O)[C@@H](NC(=O)[C@H](CO)NC(=O)[C@@H](N)CCCNC(=N)N)CSSC[C@@H](C(=O)O)NC(=O)[C@H]([C@@H](C)O)NC(=O)CNC(=O)[C@@H]2CSSC[C@@H]3NC(=O)[C@H](CCC(N)=O)NC(=O)[C@H](Cc4ccccc4)NC(=O)[C@H](C)NC(=O)[C@H]([C@@H](C)O)NC(=O)[C@H](CSSC[C@H](NC(=O)[C@H](Cc4ccccc4)NC(=O)[C@H](CO)NC(=O)[C@H](CC(C)C)NC(=O)[C@H](CCCNC(=N)N)NC(=O)[C@H](Cc4ccc(O)cc4)NC(=O)[C@H](CCCCN)NC(=O)[C@H](CCSC)NC(=O)[C@H](CO)NC(=O)[C@H](Cc4cnc[nH]4)NC(=O)[C@H](CCCCN)NC3=O)C(=O)N[C@@H](CCCNC(=N)N)C(=O)N[C@@H](CCCCN)C(=O)N[C@@H]([C@@H](C)O)C(=O)N2)NC(=O)[C@H](CCCNC(=N)N)NC(=O)[C@H](CO)NC(=O)[C@H](CCCCN)NC(=O)[C@@H]2CCCN2C(=O)[C@H]([C@@H](C)CC)NC(=O)[C@H]([C@@H](C)O)NC(=O)[C@H](CCCCN)NC1=O | < 8.48 | < 7.00 | < 7.00
CC[C@H](C)[C@@H]1NC(=O)[C@@H](NC(=O)[C@H](CO)NC(=O)[C@@H](N)CCCNC(=N)N)CSSC[C@@H](C(=O)O)NC(=O)[C@H]([C@@H](C)O)NC(=O)CNC(=O)[C@@H]2CSSC[C@@H]3NC(=O)[C@H](CCC(N)=O)NC(=O)[C@H](Cc4ccccc4)NC(=O)[C@H](C)NC(=O)[C@H]([C@@H](C)O)NC(=O)[C@H](CSSC[C@H](NC(=O)[C@H](Cc4ccccc4)NC(=O)[C@H](CO)NC(=O)[C@H](CC(C)C)NC(=O)[C@H](CCCNC(=N)N)NC(=O)[C@H](Cc4ccc(O)cc4)NC(=O)[C@H](CCCCN)NC(=O)[C@H](CCSC)NC(=O)[C@H](CO)NC(=O)[C@H](Cc4c[nH]cn4)NC(=O)[C@H](CCCCN)NC3=O)C(=O)N[C@@H](CCCNC(=N)N)C(=O)N[C@@H](CCCCN)C(=O)N[C@@H]([C@@H](C)O)C(=O)N2)NC(=O)[C@H](CCCNC(=N)N)NC(=O)[C@H](CO)NC(=O)[C@H](CCCCN)NC(=O)[C@@H]2CCCN2C(=O)[C@H]([C@@H](C)CC)NC(=O)[C@H](CCCCN)NC(=O)[C@H](CC(=O)O)NC1=O | 9.89 | 9.93 | 9.68
